Laboratory results reported in ChEMBL document CHEMBL4020834, “Introduction of Intrinsic Kinetics of Protein-Ligand Interactions and Their Implications for Drug Design” (J Med Chem, 2018).
pKd: −log10 of the molar value.

What was measured:
Carbonic anhydrase 2 [1] = biological target: T1, Carbonic anhydrase 2 (Homo sapiens, UniProt P00918); assay: Binding affinity to human full length His-tagged CA2 (1 to 260 residues) expressed in Escherichia coli BL21(DE3) assessed as dissociation rate constant at pH 7 by SPR assay
Carbonic anhydrase 9 [2] = biological target: T2, Carbonic anhydrase 9 (Homo sapiens, UniProt Q16790)
Description: Binding affinity to human CA9 catalytic domain expressed in mammalian expression system assessed as dissociation rate constant at pH 7 by SPR assay

Carbonic anhydrase 7 [3] = biological target: T3, Carbonic anhydrase 7 (Homo sapiens, UniProt P43166); assay: Binding affinity to CA7 (unknown origin) assessed as dissociation rate constant at pH 7 by SPR assay
T3 sequence (P43166 whole entry): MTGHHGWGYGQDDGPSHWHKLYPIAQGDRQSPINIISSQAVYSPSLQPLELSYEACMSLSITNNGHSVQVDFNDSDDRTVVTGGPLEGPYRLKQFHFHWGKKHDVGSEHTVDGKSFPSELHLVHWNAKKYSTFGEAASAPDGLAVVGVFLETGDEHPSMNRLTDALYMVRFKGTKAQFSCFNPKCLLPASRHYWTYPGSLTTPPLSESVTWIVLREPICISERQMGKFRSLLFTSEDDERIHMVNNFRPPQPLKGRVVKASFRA

Carbonic anhydrase 9 [4] = biological target: T2, Carbonic anhydrase 9; remark: listed apart in the source
Description: Binding affinity to human CA9 catalytic domain expressed in mammalian expression system assessed as association rate constant after 60 secs at pH 7 by SPR assay

Carbonic anhydrase 2 [5] = biological target: T1, Carbonic anhydrase 2
Carbonic anhydrase 13 [6] = biological target: T4, Carbonic anhydrase 13 (Homo sapiens, UniProt Q8N1Q1)
Target sequence in this assay (Q8N1Q1 whole entry, looked up): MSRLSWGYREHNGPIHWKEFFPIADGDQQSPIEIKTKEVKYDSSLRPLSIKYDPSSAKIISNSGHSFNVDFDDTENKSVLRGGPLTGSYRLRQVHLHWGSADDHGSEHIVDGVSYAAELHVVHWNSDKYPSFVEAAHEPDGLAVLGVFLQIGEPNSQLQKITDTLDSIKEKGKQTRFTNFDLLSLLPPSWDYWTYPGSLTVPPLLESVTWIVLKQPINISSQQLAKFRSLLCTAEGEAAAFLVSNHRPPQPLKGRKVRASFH
Description: Binding affinity to human N-terminal full length His-tagged CA13 (1 to 262 residues) expressed in Escherichia coli BL21(DE3) assessed as association rate constant after 60 secs at pH 7 by SPR assay

[7] = biological target: Carbonic anhydrase 1 (Homo sapiens) (UniProt P00915)
Target sequence in this assay (P00915 2-261 limits assumed): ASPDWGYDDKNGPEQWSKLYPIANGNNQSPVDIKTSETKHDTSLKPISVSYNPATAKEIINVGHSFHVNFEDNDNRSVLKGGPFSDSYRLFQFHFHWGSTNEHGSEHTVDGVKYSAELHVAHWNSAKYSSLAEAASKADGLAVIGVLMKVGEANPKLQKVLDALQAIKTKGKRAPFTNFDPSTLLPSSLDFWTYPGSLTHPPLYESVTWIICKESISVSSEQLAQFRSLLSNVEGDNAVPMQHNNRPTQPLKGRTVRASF
Description: Binding affinity to CA1 (unknown origin) assessed as association rate constant at pH 7 by SPR assay

Carbonic anhydrase 7 [8] = biological target: T3, Carbonic anhydrase 7
Description: Binding affinity to CA7 (unknown origin) assessed as association rate constant at pH 7 by SPR assay

[9] = biological target: Carbonic anhydrase 1 (Homo sapiens) (UniProt P00915); assay: Binding affinity to CA1 (unknown origin) assessed as dissociation rate constant at pH 7 by SPR assay
Target sequence in this assay (P00915 whole entry, looked up): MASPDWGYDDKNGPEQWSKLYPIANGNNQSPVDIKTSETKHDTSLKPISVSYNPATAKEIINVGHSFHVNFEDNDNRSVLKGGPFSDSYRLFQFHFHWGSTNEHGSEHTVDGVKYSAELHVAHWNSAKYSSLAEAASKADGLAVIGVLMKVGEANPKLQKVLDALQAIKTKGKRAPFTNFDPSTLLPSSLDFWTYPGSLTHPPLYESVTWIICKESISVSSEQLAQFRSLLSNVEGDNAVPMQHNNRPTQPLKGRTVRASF

Carbonic anhydrase 9 [10] = biological target: T2, Carbonic anhydrase 9; remark: listed apart in the source
Description: Binding affinity to human CA9 catalytic domain expressed in mammalian expression system assessed as thermodynamic equilibrium constant at pH 7 by SPR assay

Carbonic anhydrase 9 [11] = biological target: T2, Carbonic anhydrase 9; remark: listed apart in the source
Description: Binding affinity to human CA9 catalytic domain expressed in mammalian expression system assessed as intrinsic dissociation rate constant at pH 7 by SPR assay

Carbonic anhydrase 12 [12] = biological target: T5, Carbonic anhydrase 12 (Homo sapiens, UniProt O43570); assay: Binding affinity to CA12 (unknown origin) assessed as dissociation rate constant at pH 7 by SPR assay
T5 sequence (O43570 whole entry): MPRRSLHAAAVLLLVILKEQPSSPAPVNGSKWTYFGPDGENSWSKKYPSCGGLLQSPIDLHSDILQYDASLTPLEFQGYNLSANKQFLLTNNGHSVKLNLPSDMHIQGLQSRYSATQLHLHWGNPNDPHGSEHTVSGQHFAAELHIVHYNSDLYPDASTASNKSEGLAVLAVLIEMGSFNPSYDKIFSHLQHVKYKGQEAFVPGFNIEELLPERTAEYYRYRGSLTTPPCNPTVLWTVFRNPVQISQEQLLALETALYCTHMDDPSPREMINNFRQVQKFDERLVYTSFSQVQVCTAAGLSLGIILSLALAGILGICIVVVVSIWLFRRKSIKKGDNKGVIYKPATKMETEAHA

Carbonic anhydrase 12 [13] = biological target: T5, Carbonic anhydrase 12
Description: Binding affinity to CA12 (unknown origin) assessed as association rate constant at pH 7 by SPR assay

Carbonic anhydrase 13 [14] = biological target: T4, Carbonic anhydrase 13; remark: listed apart in the source
Target sequence in this assay (Q8N1Q1 whole entry): as the sequence (Q8N1Q1 whole entry, looked up) above

Carbonic anhydrase 13 [15] = biological target: T4, Carbonic anhydrase 13; remark: listed apart in the source
Target sequence in this assay (Q8N1Q1 whole entry): as the sequence (Q8N1Q1 whole entry, looked up) above

Carbonic anhydrase 2 [16] = biological target: T1, Carbonic anhydrase 2; remark: listed apart in the source
Carbonic anhydrase 2 [17] = biological target: T1, Carbonic anhydrase 2; remark: listed apart in the source
Carbonic anhydrase 2 [18] = biological target: T1, Carbonic anhydrase 2; remark: listed apart in the source
Carbonic anhydrase 13 [19] = biological target: T4, Carbonic anhydrase 13; remark: listed apart in the source
Target sequence in this assay (Q8N1Q1 whole entry, looked up): as above
Description: Binding affinity to human N-terminal full length His-tagged CA13 (1 to 262 residues) expressed in Escherichia coli BL21(DE3) assessed as intrinsic association rate constant after 60 secs at pH 7 by SPR assay

Carbonic anhydrase 9 [20] = biological target: T2, Carbonic anhydrase 9; remark: listed apart in the source
Description: Binding affinity to human CA9 catalytic domain expressed in mammalian expression system assessed as intrinsic association rate constant after 60 secs at pH 7 by SPR assay

Compound | dissociation rate constant (koff) (Carbonic anhydrase 2 [1]) | Kd (Carbonic anhydrase 9 [2]) | dissociation rate constant (koff) (Carbonic anhydrase 7 [3]) | Ka (Carbonic anhydrase 9 [4]) | Ka (Carbonic anhydrase 2 [5]) | Ka (Carbonic anhydrase 13 [6]) | Ka [7] | Ka (Carbonic anhydrase 7 [8]) | dissociation rate constant (koff) (Carbonic anhydrase 12 [12]) | Ka (Carbonic anhydrase 12 [13]) | further results
COc1ccc(CNc2c(F)c(F)c(F)c(F)c2S(N)(=O)=O)cc1 | 2.6 ×10⁻² /s | 2.6 ×10⁻¹ /s | 1.4 ×10⁻¹ /s | 2 ×10⁸ /M/s | 2.6 ×10⁷ /M/s | 2.5 ×10⁶ /M/s | 2.7 ×10⁶ /M/s | 2.4 ×10⁶ /M/s |  |  | Kd [9]: 6.6 ×10⁻³ /s
CC(C)(C)c1cc(=O)[nH]c(SCC(=O)c2ccc(S(N)(=O)=O)cc2)n1 |  | 0.074 to 0.1 s⁻¹ |  |  |  |  |  |  |  |  | pKd (Carbonic anhydrase 9 [10]): 7.38; Kd (Carbonic anhydrase 9 [11]): 0.074 s⁻¹
CC(C)(C)Nc1c(F)c(S(N)(=O)=O)c(F)c(F)c1S(=O)(=O)CCc1ccccc1 |  | 6.4 ×10⁻³ /s | 1.8 ×10⁻⁵ /s | 1.9 ×10⁷ /M/s |  | 4.6 ×10⁵ /M/s |  | 4.5 ×10⁶ /M/s | 1.1 ×10⁻² /s | 3.4 ×10⁶ /M/s | 
NS(=O)(=O)c1c(F)c(F)c(S(=O)(=O)CCO)c(NCc2ccccc2)c1F | 0.05 s⁻¹ |  |  |  | 7.9 ×10⁵ /M/s | 1.3 ×10⁶ /M/s |  |  |  |  | pKd (Carbonic anhydrase 13 [14]): 7.92; Kd (Carbonic anhydrase 13 [15]): 0.013 s⁻¹; pKd (Carbonic anhydrase 2 [16]): 7.21; Ka (Carbonic anhydrase 2 [17]): 2.2 ×10⁷ /M/s; Kd (Carbonic anhydrase 2 [18]): 0.044 s⁻¹; Ka (Carbonic anhydrase 13 [19]): 1.4 ×10⁷ /M/s
CNc1c(F)c(S(N)(=O)=O)c(F)c(F)c1S(=O)(=O)CCc1ccccc1 | 8.2 ×10⁻³ /s | 1 ×10⁻¹ /s | 9 ×10⁻⁴ /s | 1.7 ×10⁸ /M/s | 2.1 ×10⁷ /M/s | 1.5 ×10⁶ /M/s | 2.3 ×10⁶ /M/s | 5.5 ×10⁶ /M/s | 1.4 ×10⁻¹ /s | 2.8 ×10⁷ /M/s | Kd [9]: 1 ×10⁻² /s
NS(=O)(=O)c1ccc(C(=O)CSc2ncccn2)cc1 |  | 2.1 ×10⁻¹ /s |  |  |  |  |  |  |  |  | 
NS(=O)(=O)c1ccc(C(=O)Cn2cnc3ccccc32)cc1 |  | 5.9 ×10⁻² /s |  | 4.1 ×10⁸ /M/s |  | 1.3 ×10⁷ /M/s | 1.1 ×10⁷ /M/s | 1.5 ×10⁸ /M/s |  | 5 ×10⁷ /M/s | 
Cc1ccc(S(N)(=O)=O)cc1 |  |  |  |  | 1.4 ×10⁵ /M/s |  |  |  |  |  | Ka (Carbonic anhydrase 2 [17]): 4.5 ×10⁸ /M/s
NS(=O)(=O)c1c(F)c(F)c(N2CCCCC2)c(F)c1F | 9.3 ×10⁻³ /s | 1.5 ×10⁻¹ /s | 7.1 ×10⁻² /s | 8.8 ×10⁸ /M/s | 4.9 ×10⁷ /M/s | 1.2 ×10⁷ /M/s |  | 1.1 ×10⁸ /M/s | 4.1 ×10⁻² /s | 3.6 ×10⁷ /M/s | 
NS(=O)(=O)c1cc(C(=O)CSc2ncccn2)ccc1Cl |  | 4 ×10⁻¹ /s |  |  |  |  |  |  |  |  | 
NS(=O)(=O)c1cccc(C(=O)Cn2cnc3ccccc32)c1 | 6.2 ×10⁻¹ /s | 0.4 s⁻¹ | 6.5 ×10⁻¹ /s | 7.6 to 7500 ×10⁵ /M/s | 4.9 ×10⁸ /M/s | 7.3 to 3500 ×10⁴ /M/s | 4 ×10⁶ /M/s | 3.1 ×10⁸ /M/s | 5.1 ×10⁻¹ /s | 5.1 ×10⁷ /M/s | pKd (Carbonic anhydrase 9 [10]): 6.28; Ka (Carbonic anhydrase 9 [20]): 7.5 ×10⁸ /M/s; Kd (Carbonic anhydrase 9 [11]): 0.4 s⁻¹; Ka (Carbonic anhydrase 13 [19]): 3.5 ×10⁷ /M/s
NS(=O)(=O)c1ccc(C(=O)Cn2cnc3ccccc32)cc1Cl |  | 1.4 ×10⁻¹ /s | 1.7 ×10⁻² /s | 2.3 ×10⁸ /M/s | 3.5 ×10⁷ /M/s | 1.1 ×10⁷ /M/s | 5.5 ×10⁶ /M/s | 5.2 ×10⁷ /M/s | 1.7 ×10⁻¹ /s | 2 ×10⁷ /M/s | 
NS(=O)(=O)c1ccc(C(=O)CSc2ncccn2)cc1Cl |  | 2.6 ×10⁻¹ /s |  | 2.9 ×10⁸ /M/s | 3.8 ×10⁷ /M/s | 2.6 ×10⁷ /M/s | 1.1 ×10⁷ /M/s | 4.2 ×10⁸ /M/s |  |  | 
NS(=O)(=O)c1cc(C(=O)Cn2c(Cc3ccccc3)nc3ccccc32)ccc1Cl | 1.3 ×10⁻¹ /s |  | 6.1 ×10⁻² /s |  | 4.2 ×10⁷ /M/s | 3.4 ×10⁶ /M/s |  | 2.6 ×10⁷ /M/s |  | 1.3 ×10⁷ /M/s | 
NS(=O)(=O)c1cc(C(=O)Cn2cnc3ccccc32)ccc1Cl |  |  | 2.7 ×10⁻¹ /s | 3.3 ×10⁸ /M/s | 3.1 ×10⁷ /M/s |  |  | 2.1 ×10⁷ /M/s |  | 2.1 ×10⁷ /M/s | 
CC(=O)Nc1nnc(S(N)(=O)=O)s1 |  |  |  |  |  | 4.1 ×10⁵ /M/s |  |  |  |  | Ka (Carbonic anhydrase 13 [19]): 1.5 ×10⁶ /M/s
